Experimental data published in patent US20230414632A1, “INHIBITION OF THE HIV-1 REPLICATION BY COMPOUNDS DIRECTED AGAINST A NEW TARGET OF THE VIRAL CYCLE” (priority 2020, published 2023).

Experiments:
MT4 cells = test: Cell survival / cellular toxicity in infected MT4 cells (flow cytometry); assay type: cell-based; conditions: up to 10 μM compound, day 5, MT4 cells
Procedure: For HIV-1 gfp+ vectors, viral replication is followed by GFP expression [i.e. the percentage and geometric mean fluorescence intensity (MFI) of GFP^+ cells]. Infectivity was estimated by flow cytometry using a FACSCalibur™ cytofluorometer (BD Biosciences). Toxicity is also assessed by flow cytometry (side and forward scatter).
At J0 (day zero) MT4 cells was used for infection with HIV gfp+ virus at multiplicity of infection (m.o.i.) reaching 0.1-0.2 (50 ng of p24^gag antigen per 10^6 cells). Two days post-infection (J2), MT4 cells are washed extensively (3 times with PBS) and resuspended using fresh RPMI medium (2×10^5 cells per ml) and plated into 6 well plates (2 ml per well) in the presence of compounds of formula I or II at various molecules concentrations. A control not infected with the virus (MT4 Ninf), or brought into contact with DMSO (inf DMSO, the solvent of compounds of formula I or II), or with dolutegravir (DTG) at 100 nM, a known inhibitor of the integrase, are conducted in parallel. At time J5 (day five), cells are then collected for cytometry analysis to quantify the production of viral particles and cell survival.

[1] = target: interaction between the HIV-1 integrase (IN) and the catalytic domain of the human mitochondrial lysyl-tRNA synthetase (mLysRS) (Homo sapiens (Human), UniProt P12497+Q15046); test: HTRF assay of the mLysRS:IN interaction; assay type: binding, HIV-1 / human; conditions: compound from 17 to 666 μM
Procedure: Experiments were performed on the interaction between the HIV-1 integrase (IN) and the catalytic domain of the human mitochondrial lysyl-tRNA synthetase (mLysRS), which constitutes the main contribution to the Gag Pol:mLysRS interaction.
Homogeneous time-resolved fluorescence (HTRF) assays were performed in black, half-area, flat bottom, 96-well microplates (Costar #3694). Human mitochondrial LysRS with a C-terminal HA-tag (mLysRS-HA), diluted in HTRF buffer (10 mM Tris-HCl pH 7.5, 50 mM NaCl, 10 mM 2-mercaptoethanol, BSA at 1 mg/ml) was added (20 μl at a dimer concentration of 3.75 nM) in the wells of microplates placed on ice. Compounds of formula I or II (1 μl of a 10 mM solution in DMSO) were then added to the wells, and mixing was achieved by pipetting up and down 3-times 10 μl. […]
A 10 μl solution of KF prepared in HTRF buffer at a concentration of 250 mM was then added and mixing was achieved by pipetting up and down 3-times 20 μl. After centrifugation at 900 g for 3 min at 4° C., fluorescence of Eu^3+ cryptate and of XL665 was recorded at 620 nm (I620) and 665 nm (I665), respectively, after excitation of Eu^3+ cryptate at 317 nm, in an Infinite M1000 PRO microplate reader (TECAN). Results are expressed as the ratio of I665/I620. The HTRF signal corresponds to the ratio of fluorescence at 665 and 620 nm (I665/I620). […]

[2] = tested on: HIV-1 gfp+ virus in MT4 cells; test: Ex-vivo inhibition of HIV-1 replication (multi-cycle, HIV-1 gfp+ in MT4 cells, flow cytometry); assay type: cell-based; conditions: 10 μM compound, day 5, MT4 cells infected with HIV gfp+
Procedure: Ability of compounds of formula I or II to inhibit the HIV-1 replicative cycle ex vivo was conducted by methods commonly used in antiretroviral pharmacology.
MT4 cell line (Charneau et al. J. Virol. 1992, 66:2814) were maintained in RPMI 1640. HEK293T were maintained in Dulbecco's Modified Eagle Medium (DMEM). All media were supplemented with Glutamax and with 10% heat-inactivated fetal calf serum (Hyclone) and 1% penicillin/streptomycin (100 units/mL) (Gibco). All media were purchased from Gibco (Life Technologies Co.). All cell lines used here were incubated at 37° C., under 5% CO2 atmosphere. […]
For HIV-1 gfp+ vectors, viral replication is followed by GFP expression [i.e. the percentage and geometric mean fluorescence intensity (MFI) of GFP^+ cells]. […] Toxicity is also assessed by flow cytometry (side and forward scatter).
At J0 (day zero) MT4 cells was used for infection with HIV gfp+ virus at multiplicity of infection (m.o.i.) reaching 0.1-0.2 (50 ng of p24^gag antigen per 10^6 cells). […] At time J5 (day five), cells are then collected for cytometry analysis to quantify the production of viral particles and cell survival.

interaction between the HIV-1 integrase (IN) and the catalytic domain of the human mitochondrial lysyl-tRNA synthetase (mLysRS), sequence (Q15046 whole entry, looked up, other chains not shown, the tested form may be a part): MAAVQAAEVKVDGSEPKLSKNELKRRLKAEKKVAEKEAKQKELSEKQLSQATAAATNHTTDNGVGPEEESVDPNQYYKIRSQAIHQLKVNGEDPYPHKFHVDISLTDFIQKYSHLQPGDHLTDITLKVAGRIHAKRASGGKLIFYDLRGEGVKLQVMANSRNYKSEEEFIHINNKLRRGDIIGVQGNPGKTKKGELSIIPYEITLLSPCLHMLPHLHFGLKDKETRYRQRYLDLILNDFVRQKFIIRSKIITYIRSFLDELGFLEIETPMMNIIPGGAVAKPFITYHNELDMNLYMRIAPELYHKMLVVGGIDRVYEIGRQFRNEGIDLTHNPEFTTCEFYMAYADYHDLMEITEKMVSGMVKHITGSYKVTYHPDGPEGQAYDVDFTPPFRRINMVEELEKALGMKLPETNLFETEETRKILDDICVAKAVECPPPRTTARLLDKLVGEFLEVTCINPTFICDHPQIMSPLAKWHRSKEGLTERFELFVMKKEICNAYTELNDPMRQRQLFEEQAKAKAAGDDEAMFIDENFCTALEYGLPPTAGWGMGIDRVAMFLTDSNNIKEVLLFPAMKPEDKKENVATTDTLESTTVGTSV

Row | SMILES | cellular toxicity (MT4 cells) | IC50 [1] [µM] | production of viral particles [2]
1 | CCOC(=O)C1=C(C)NC(C)=C(C(=O)OCC)C1c1ccccc1/C=C/C(=O)OC(C)(C)C [I-a] | no cellular toxicity has been observed |  | 
2 | COCCOC(=O)C1=C(C)NC(C)=C(C(=O)OC/C=C/c2ccccc2)C1c1cccc([N+](=O)[O-])c1 (stereo not drawn) [I-b] | no cellular toxicity has been observed |  | 
3 | CC1=C(C(=O)OC(C)C)C(c2cccc([N+](=O)[O-])c2)C(C(=O)OC2CN(C(c3ccccc3)c3ccccc3)C2)=C(N)N1 (stereo not drawn) [I-d] |  | 400 ± 150 | 
4 | CN1CCCC(n2nc(Cc3ccc(Cl)cc3)c3ccccc3c2=O)CC1 (stereo not drawn) [II-a] | no cellular toxicity has been observed | 300 ± 50 | greatly reduced
